Assay [1] concerns H2228. Description: CCK-8 proliferation, NCI-H2228 (H2228). Type of assay: cell-based. Particulars: Homo sapiens, NCI-H2228; Table B6, compounds designed based on the ALK inhibitors; H2228 cells; read-out: Inhibitory activity (IC50, nM) on tumor cell proliferation, H2228. A digest of the protocol:
(§1)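 CCK-8 viability readout; IC50 from growth-inhibition curve fitting. Cells plated, dosed 24h later with a 10-point series, top 10µM, 5-fold steps. Culture at 37°C, 5% CO2.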

In assay [2] the test system is MCF7. In words: CCK-8 proliferation, MCF7 (MCF-7). It counts as cell-based. The following applies: Homo sapiens, MCF7; Table B6, compounds designed based on the ALK inhibitors; MCF-7 cells; read-out: Inhibitory activity (IC50, nM) on tumor cell proliferation, MCF-7. A digest of the protocol: as §1
Assay [3] concerns the target T1, ALK (Homo sapiens, UniProt Q96SW2+Q9HC35+Q9UM73).
T1 construct: evaluate the effects of the compounds of the present disclosure on the expression of target proteins in cells; endogenous in cells; host or cells: H2228
Description: Western blot degradation of ALK (H2228 Cell). Type of assay: cell-based. The following applies: Table D5. A digest of the protocol: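 Degradation is assessed by immunoblotting lysates of treated cells. Target bands are quantified by grayscale and normalised to an internal control, so degradation rate equals 100% minus % remaining.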
Background: Immunoblotting shows a protein as a band on a membrane.

Assay [4] deals with SR. In words: CCK-8 proliferation, SR. Type of assay: cell-based, Human. The following applies: Homo sapiens; Table B6, compounds designed based on the ALK inhibitors; SR cells; read-out: Inhibitory activity (IC50, nM) on tumor cell proliferation, SR. A digest of the protocol: as §1
For assay [5], the system named is MDA-MB-231. Description: CCK-8 proliferation, MDA-MB-231. It counts as cell-based. The following applies: Homo sapiens; Table B6, compounds designed based on the ALK inhibitors; MDA-MB-231 cells; read-out: Inhibitory activity (IC50, nM) on tumor cell proliferation, MDA-MB-231. The procedure:
The tumor cells used herein were cultured in a cell culture medium listed in table A1 at 37°C in an incubator with 5% CO2. Prior to experimentation, all cell lines used were correctly identified by STR profiling, and tested negative for mycoplasma contamination using a mycoplasma detection kit through routine screenings. Table A1. Tumor cells and cell culture medium used in the present disclosure
IC50 values of the compounds of the present disclosure (including the compounds in Table 1, and compounds of examples) were measured using the Meilun Cell Counting Kit-8 kit from Dalian Meilun Biotech Co., Ltd. Assay details are as follows: tumor cells were seeded in a 96-well plate at a density listed in Table A2. After 24h, 100 µL of the inoculated cells were treated with 0.5µL of the compounds of the present disclosure (including the compounds in Tables 1 and 2, and compounds of examples) at 10 different successively decreasing concentrations (starting at the highest concentration of 10µM; 5-fold serial dilutions). After the cells were treated with the compounds of the present disclosure for a period of time, the cell viability detection reagent was added to the culture medium for cell viability assessment according to the instructions provided with the CCK-8 kit. […] The growth inhibition of the compounds of the present disclosure on cells was plotted by Prism Graphpad software, and the IC50 values of the compounds of the present disclosure were calculated therefrom. […] Seeding protocol and treatment time for tumor cells

The subject of assay [6] is H1975. Description: CCK-8 proliferation, NCI-H1975 (H1975). Type of assay: cell-based, Human. Particulars: Homo sapiens, NCI-H1975; Table B6, compounds designed based on the ALK inhibitors; H1975 cells; read-out: Inhibitory activity (IC50, nM) on tumor cell proliferation, H1975. A digest of the protocol:
as §1

Assay [7] deals with T2, human Cereblon WT GST-tagged protein (Homo sapiens, UniProt Q96SW2).
T2 construct: purchased CISBIO 64BDCRBNPEH
In words: CRBN binding, HTRF (CEREBLON BINDING kit). Particulars: Table II-2, CRBN binding screening, HTRF. A digest of the protocol:
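Competitive HTRF: GST-tagged human WT Cereblon mixed with compound, Thalidomide-Re tracer and GST Eu antibody, incubated 3 h at room temperature. Signals read at 620 and 665 nm.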
(TR-FRET usually uses a lanthanide donor and a delayed reading to cut background.)

Assay [8] has as its system MM.1S. In words: CCK-8 proliferation, MM.1S. Type of assay: cell-based. Particulars: Homo sapiens, MM1.S; Table B6, compounds designed based on the ALK inhibitors; MM.1S cells; read-out: Inhibitory activity (IC50, nM) on tumor cell proliferation, MM.1S. A digest of the protocol: as §1

The results in this text go back to patent EP4678638A1, “NEW E3 UBIQUITIN LIGASE LIGAND, PROTEIN DEGRADATION AGENT AND USE THEREOF” (priority 2023, dated 2024).

T1 sequence (Q9HC35+Q9UM73 fused): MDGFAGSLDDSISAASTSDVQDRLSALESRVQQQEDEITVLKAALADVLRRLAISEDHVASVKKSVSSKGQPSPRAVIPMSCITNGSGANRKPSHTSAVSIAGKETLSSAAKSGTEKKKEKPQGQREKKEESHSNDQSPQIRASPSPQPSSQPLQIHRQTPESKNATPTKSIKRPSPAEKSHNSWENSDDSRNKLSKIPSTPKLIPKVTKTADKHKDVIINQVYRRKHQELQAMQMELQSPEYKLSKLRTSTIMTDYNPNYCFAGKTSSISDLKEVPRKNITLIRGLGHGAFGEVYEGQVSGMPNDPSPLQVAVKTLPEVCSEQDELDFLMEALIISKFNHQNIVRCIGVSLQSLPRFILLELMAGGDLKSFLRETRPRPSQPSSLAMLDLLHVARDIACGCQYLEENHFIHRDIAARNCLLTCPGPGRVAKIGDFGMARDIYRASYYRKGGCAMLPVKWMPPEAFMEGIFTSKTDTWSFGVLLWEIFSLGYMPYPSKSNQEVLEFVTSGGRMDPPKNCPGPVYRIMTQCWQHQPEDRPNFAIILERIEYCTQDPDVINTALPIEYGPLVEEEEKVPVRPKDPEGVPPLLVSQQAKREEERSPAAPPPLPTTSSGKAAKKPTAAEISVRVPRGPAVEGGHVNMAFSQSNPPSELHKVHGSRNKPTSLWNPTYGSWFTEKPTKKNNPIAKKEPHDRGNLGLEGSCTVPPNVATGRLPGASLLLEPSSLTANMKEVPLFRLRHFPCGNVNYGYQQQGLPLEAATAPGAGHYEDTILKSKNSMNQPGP
T1 sequence (Q96SW2 whole entry): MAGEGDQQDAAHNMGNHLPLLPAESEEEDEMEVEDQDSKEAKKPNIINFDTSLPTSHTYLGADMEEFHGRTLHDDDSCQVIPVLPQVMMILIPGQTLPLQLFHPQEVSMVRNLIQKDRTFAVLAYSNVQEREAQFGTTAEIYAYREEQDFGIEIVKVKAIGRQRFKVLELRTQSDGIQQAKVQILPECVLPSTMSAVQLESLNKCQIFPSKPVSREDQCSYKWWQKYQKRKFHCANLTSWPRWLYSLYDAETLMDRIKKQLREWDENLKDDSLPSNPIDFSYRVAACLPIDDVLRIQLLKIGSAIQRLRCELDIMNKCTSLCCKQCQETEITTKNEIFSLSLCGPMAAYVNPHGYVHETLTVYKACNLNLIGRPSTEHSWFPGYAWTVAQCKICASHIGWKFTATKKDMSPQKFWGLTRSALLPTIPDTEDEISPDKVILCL
T1 sequence (Q16531 whole entry partner): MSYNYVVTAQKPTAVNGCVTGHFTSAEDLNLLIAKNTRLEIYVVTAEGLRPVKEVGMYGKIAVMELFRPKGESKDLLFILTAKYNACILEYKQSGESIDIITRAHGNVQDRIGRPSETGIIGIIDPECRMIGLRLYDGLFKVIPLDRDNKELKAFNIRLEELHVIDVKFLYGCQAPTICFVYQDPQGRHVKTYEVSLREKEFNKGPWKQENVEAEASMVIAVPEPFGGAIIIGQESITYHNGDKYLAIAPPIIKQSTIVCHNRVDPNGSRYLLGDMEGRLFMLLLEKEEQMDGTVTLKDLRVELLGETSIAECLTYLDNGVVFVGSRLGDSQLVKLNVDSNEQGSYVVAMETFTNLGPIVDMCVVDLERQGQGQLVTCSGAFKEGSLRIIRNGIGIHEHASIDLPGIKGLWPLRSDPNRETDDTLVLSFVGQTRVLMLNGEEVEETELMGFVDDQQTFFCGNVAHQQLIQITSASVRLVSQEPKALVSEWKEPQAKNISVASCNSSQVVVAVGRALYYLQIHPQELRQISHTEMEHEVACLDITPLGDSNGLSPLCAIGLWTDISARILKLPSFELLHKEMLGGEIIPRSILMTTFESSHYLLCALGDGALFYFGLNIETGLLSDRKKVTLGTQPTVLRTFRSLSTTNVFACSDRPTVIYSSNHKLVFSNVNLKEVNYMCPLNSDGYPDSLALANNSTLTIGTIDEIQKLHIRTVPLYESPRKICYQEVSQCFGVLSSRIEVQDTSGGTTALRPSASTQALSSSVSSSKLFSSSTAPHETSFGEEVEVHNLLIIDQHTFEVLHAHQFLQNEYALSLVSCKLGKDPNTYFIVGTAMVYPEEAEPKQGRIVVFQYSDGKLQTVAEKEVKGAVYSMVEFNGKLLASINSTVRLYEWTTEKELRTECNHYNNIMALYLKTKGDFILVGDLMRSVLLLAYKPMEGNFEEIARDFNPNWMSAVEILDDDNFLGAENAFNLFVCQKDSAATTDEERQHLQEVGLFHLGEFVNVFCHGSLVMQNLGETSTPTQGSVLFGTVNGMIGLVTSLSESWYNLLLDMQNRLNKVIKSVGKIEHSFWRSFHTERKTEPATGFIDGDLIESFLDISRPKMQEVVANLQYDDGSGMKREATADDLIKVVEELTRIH
T2 sequence (Q96SW2 whole entry): as the sequence (Q96SW2 whole entry) above

As for `CCc1cc2c(cc1N1CCC(N3CCN(Cc4cccc(N5CCC(=O)NC5=O)c4)CC3)CC1)C(C)(C)c1[nH]c3cc(C#N)ccc3c1C2=O` [GT-07310, 8-(4-(4-(3-(2,4-dioxotetrahydropyrimidin-1(2H)-yl)benzyl)piperazin-1-yl)piperidin-1-yl)-9-ethyl-6,6-dimethyl-11-oxo-6,11-dihydro-5H-benzo[b]carbazole-3-carbonitrile], the IC50 lay in the range of 100 to 500 nM in assay [1], 500 to 1000 nM in assay [2], 1 to 10 nM in assay [4] and 500 to 1000 nM in assay [5]. The “Degradation of substrate protein ALK (substrate protein remaining %)” value (from here on “Degradation … (substrate protein remaining %)”) in assay [3] was “A (A is defined as 0% ≤ substrate protein remaining % ≤ 80%)”.

`COc1cc(N2CCC(N(C)Cc3cncc(C4CCC(=O)NC4=O)c3)CC2)ccc1Nc1ncc(Cl)c(Nc2ccccc2P(C)(C)=O)n1` (stereo not drawn) [GT-07699, 3-(5-(((1-(4-((5-chloro-4-((2-(dimethylphosphoryl)phenyl)amino)pyrimidin-2-yl)amino)-3-methoxyphenyl)piperidin-4-yl)(methyl)amino)methyl)pyridin-3-yl)piperidine-2,6-dione]: the IC50 in assay [1] lay within 100 to 500 nM; in assay [2], 500 to 1000 nM; in assay [4], 10 to 50 nM; in assay [5] it was 500 to 1000 nM; in assay [6], 500 to 1000 nM. Moreover, the “Degradation … (substrate protein remaining %)” value in assay [3] is “A (A is defined as 0% ≤ substrate protein remaining % ≤ 80%)”.

Regarding `COc1cc(N2CCC(N3CCN(Cc4ccnc(C5CCC(=O)NC5=O)c4)CC3)CC2)ccc1Nc1ncc(Cl)c(Nc2ccccc2P(C)(C)=O)n1` (stereo not drawn) [GT-07612, 3-(4-((4-(1-(4-((5-chloro-4-((2-(dimethylphosphoryl)phenyl)amino)pyrimidin-2-yl)amino)-3-methoxyphenyl)piperidin-4-yl)piperazin-1-yl)methyl)pyridin-2-yl)piperidine-2,6-dione], the IC50 is 50 to 100 nM in assay [1], 1 to 10 nM in assay [4], 500 to 1000 nM in assay [5] and 100 to 500 nM in assay [6]. In assay [3], the “Degradation … (substrate protein remaining %)” value is “A (A is defined as 0% ≤ substrate protein remaining % ≤ 80%)”.

Regarding `COc1cc(N2CCC(N(C)Cc3ccc(C4CCC(=O)NC4=O)cc3)CC2)ccc1Nc1ncc(Cl)c(Nc2ccccc2P(C)(C)=O)n1` (stereo not drawn) [GT-03603, 3-(4-(((1-(4-((5-chloro-4-((2-(dimethylphosphoryl)phenyl)amino)pyrimidin-2-yl)amino)-3-methoxyphenyl)piperidin-4-yl)(methyl)amino)methyl)phenyl)piperidine-2,6-dione], the IC50 in assay [1] lay within 50 to 100 nM; in assay [4] it was 1 to 10 nM; in assay [8], 500 to 1000 nM; in assay [5] it was 500 to 1000 nM; in assay [6] it was 500 to 1000 nM. Besides, the inhibition – broadly, the relative decrease from the control value, in per cent – at 0.5 µM in assay [7] (at 0.5µM, read-out: Inhibition rate (%) at 0.5µM) fell in the range of 30 to 40%. In addition, the inhibition at 2 µM in assay [7] (at 2 µM, read-out: Inhibition rate (%) at 2 µM) was in the range of 53 to 60%. The “Degradation … (substrate protein remaining %)” value in assay [3] is reported as “A (A is defined as 0% ≤ substrate protein remaining % ≤ 80%)”.

Regarding `COc1cc(N2CCC(N3CCN(Cc4ccc(C5CCC(=O)NC5=O)cn4)CC3)CC2)ccc1Nc1ncc(Cl)c(Nc2ccccc2P(C)(C)=O)n1` (stereo not drawn) [GT-07613, 3-(6-((4-(1-(4-((5-chloro-4-((2-(dimethylphosphoryl)phenyl)amino)pyrimidin-2-yl)amino)-3-methoxyphenyl)piperidin-4-yl)piperazin-1-yl)methyl)pyridin-3-yl)piperidine-2,6-dione], the IC50 lay in the range of 50 to 100 nM in assay [1]; 500 to 1000 nM in assay [2]; 1 to 10 nM in assay [4]; 500 to 1000 nM in assay [5]; 500 to 1000 nM in assay [6]. Besides, the “Degradation … (substrate protein remaining %)” value in assay [3] is listed as “A (A is defined as 0% ≤ substrate protein remaining % ≤ 80%)”.

As to `CCc1cc2c(cc1N1CCC(N3CCN(Cc4ccc(N5CCC(=O)NC5=O)cc4F)CC3)CC1)C(C)(C)c1[nH]c3cc(C#N)ccc3c1C2=O` [GT-07309, 8-(4-(4-(4-(2,4-dioxotetrahydropyrimidin-1(2H)-yl)-2-fluorobenzyl)piperazin-1-yl)piperidin-1-yl)-9-ethyl-6,6-dimethyl-11-oxo-6,11-dihydro-5H-benzo[b]carbazole-3-carbonitrile], the IC50 in assay [1] fell in the range of 100 to 500 nM; in assay [4], 10 to 50 nM; in assay [5], 500 to 1000 nM. Further, the “Degradation … (substrate protein remaining %)” value in assay [3] is “A (A is defined as 0% ≤ substrate protein remaining % ≤ 80%)”.

On to `COc1cc(N2CCC(N3CCN(Cc4cccc(NC5CCC(=O)NC5=O)c4)CC3)CC2)ccc1Nc1ncc(Cl)c(Nc2ccccc2P(C)(C)=O)n1` (stereo not drawn) [GT-07605, 3-((3-((4-(1-(4-((5-chloro-4-((2-(dimethylphosphoryl)phenyl)amino)pyrimidin-2-yl)amino)-3-methoxyphenyl)piperidin-4-yl)piperazin-1-yl)methyl)phenyl)amino)pip eridine-2,6-dione], for which the IC50 in assay [1] is 50 to 100 nM; in assay [2], 100 to 500 nM; in assay [4], 1 to 10 nM; in assay [5], 100 to 500 nM; in assay [6] it was 100 to 500 nM. Besides, the “Degradation … (substrate protein remaining %)” value in assay [3] is “A (A is defined as 0% ≤ substrate protein remaining % ≤ 80%)”.

As to `COc1cc(N2CCC(N3CCN(Cc4ccc(N5CCC(=O)NC5=O)cn4)CC3)CC2)ccc1Nc1ncc(Cl)c(Nc2ccccc2P(C)(C)=O)n1` [GT-07606, 1-(6-((4-(1-(4-((5-chloro-4-((2-(dimethylphosphoryl)phenyl)amino)pyrimidin-2-yl)amino)-3-methoxyphenyl)piperidin-4-yl)piperazin-1-yl)methyl)pyridin-3-yl)dihydropyrimidine-2,4(1H,3H)-dione], the IC50 in assay [1] is 50 to 100 nM; in assay [2], 100 to 500 nM; in assay [4], 1 to 10 nM; in assay [8], 500 to 1000 nM; in assay [5] it was 100 to 500 nM; in assay [6], 100 to 500 nM.

On to `COc1cc(N2CCN(Cc3cncc(C4CCC(=O)NC4=O)c3)CC2)ccc1Nc1ncc(Cl)c(Nc2ccccc2P(C)(C)=O)n1` (stereo not drawn) [GT-07714, 3-(5-((4-(4-((5-chloro-4-((2-(dimethylphosphoryl)phenyl)amino)pyrimidin-2-yl)amino)-3-methoxyphenyl)piperazin-1-yl)methyl)pyridin-3-yl)piperidine-2,6-dione], for which the IC50 in assay [1] lay in the range of 100 to 500 nM; in assay [2], 50 to 100 nM; in assay [4], 10 to 50 nM; in assay [5] it was 100 to 500 nM. Besides, the “Degradation … (substrate protein remaining %)” value in assay [3] is listed as “A (A is defined as 0% ≤ substrate protein remaining % ≤ 80%)”.

For the compound `COc1cc(N2CCC(N(C)Cc3cccc(NC4CCC(=O)NC4=O)c3)CC2)ccc1Nc1ncc(Cl)c(Nc2ccccc2P(C)(C)=O)n1` (stereo not drawn) [GT-07692, 3-((3-(((1-(4-((5-chloro-4-((2-(dimethylphosphoryl)phenyl)amino)pyrimidin-2-yl)amino)-3-methoxyphenyl)piperidin-4-yl)(methyl)amino)methyl)phenyl)amino)piperidine-2,6-dione], the IC50 in assay [1] fell in the range of 100 to 500 nM; in assay [2] it was 100 to 500 nM; in assay [4], 10 to 50 nM; in assay [5], 500 to 1000 nM; in assay [6] it was 500 to 1000 nM. For the same compound, in assay [3], the “Degradation … (substrate protein remaining %)” value is “A (A is defined as 0% ≤ substrate protein remaining % ≤ 80%)”.
